Experimental data: ChEMBL document CHEMBL5696441 (Nat Chem Biol, 2011)
Calls of active or inactive are those of the source. The rule behind the calls is not given here.

Columns and labels:
[1] = target: Ephrin type-A receptor 4 (Homo sapiens) (UniProt P54764); assay: Inhibition of EPHA4 (unknown origin) assessed as remaining activity at 1 uM by Kinome scan method relative to control
[2] = target: Serine/threonine-protein kinase PAK 6 (Homo sapiens) (UniProt Q9NQU5); assay: Inhibition of human PAK6 assessed as residual activity at 1 uM using bio-4xCHKT as substrate in presence of 33P-ATP by ProQinase assay relative to control
[3] = target: Calcium/calmodulin-dependent protein kinase kinase 2 (Homo sapiens) (UniProt Q96RR4); assay: Inhibition of CAMKK2 (unknown origin) assessed as remaining activity at 1 uM by Kinome scan method relative to control
[4] = target: Ephrin type-B receptor 2 (Homo sapiens) (UniProt P29323); assay: Inhibition of EPHB2 (unknown origin) assessed as remaining activity at 1 uM by Kinome scan method relative to control
[5] = target: Activin receptor type-2B (Homo sapiens) (UniProt Q13705); assay: Inhibition of ACVR2B (unknown origin) assessed as remaining activity at 1 uM by Kinome scan method relative to control
[6] = target: Cyclin-Y/Cyclin-dependent kinase 16 (Homo sapiens) (UniProt Q00536+Q8ND76); assay: Inhibition of human PCTAIRE1/CyclinY assessed as residual activity at 1 uM using RBER-GSK3 as substrate in presence of 33P-ATP by ProQinase assay relative to control; type: protein-complex assay
[7] = target: Serine/threonine-protein kinase 33 (Homo sapiens) (UniProt Q9BYT3); assay: Inhibition of human STK33 assessed as residual activity at 1 uM using RBER-CHKtide as substrate in presence of 33P-ATP by ProQinase assay relative to control
[8] = target: Tyrosine-protein kinase receptor UFO (Homo sapiens) (UniProt P30530); assay: Inhibition of AXL (unknown origin) assessed as remaining activity at 1 uM by Kinome scan method relative to control
[9] = target: Mitogen-activated protein kinase 8 (Homo sapiens) (UniProt P45983); assay: Inhibition of human JNK1 assessed as residual activity at 1 uM using ATF2 as substrate in presence of 33P-ATP by ProQinase assay relative to control
[10] = target: Serine/threonine-protein kinase 4 (Homo sapiens) (UniProt Q13043); assay: Inhibition of MST1 (unknown origin) assessed as remaining activity at 1 uM by Kinome scan method relative to control
[11] = target: Maternal embryonic leucine zipper kinase (Homo sapiens) (UniProt Q14680); assay: Inhibition of human MELK assessed as residual activity at 1 uM using RBER-CHKtide as substrate in presence of 33P-ATP by ProQinase assay relative to control
[12] = target: Mitogen-activated protein kinase kinase kinase 13 (Homo sapiens) (UniProt O43283); assay: Inhibition of LZK (unknown origin) assessed as remaining activity at 1 uM by Kinome scan method relative to control
[13] = target: Vascular endothelial growth factor receptor 3 (Homo sapiens) (UniProt P35916); assay: Inhibition of human VEGFR3 assessed as residual activity at 1 uM using polyEY as substrate in presence of 33P-ATP by ProQinase assay relative to control
[14] = target: LIM domain kinase 2 (Homo sapiens) (UniProt P53671); assay: Inhibition of human LIMK2 assessed as residual activity at 1 uM using CFL1 as substrate in presence of 33P-ATP by ProQinase assay relative to control
[15] = target: Dual specificity tyrosine-phosphorylation-regulated kinase 1A (Homo sapiens) (UniProt Q13627); assay: Inhibition of human DYRK1A assessed as residual activity at 1 uM using RBER-CHKtide as substrate in presence of 33P-ATP by ProQinase assay relative to control
[16] = target: Serine/threonine-protein kinase SIK1 (Homo sapiens) (UniProt P57059); assay: Inhibition of SIK (unknown origin) assessed as remaining activity at 1 uM by Kinome scan method relative to control
[17] = target: Tyrosine-protein kinase HCK (Homo sapiens) (UniProt P08631); assay: Inhibition of human HCK assessed as residual activity at 1 uM using polyEY as substrate in presence of 33P-ATP by ProQinase assay relative to control
[18] = test system: Epidermal growth factor receptor (Homo sapiens), P00533 [UNDEFINED MUTATION]; assay: Inhibition of human EGFR d752-759 mutant assessed as residual activity at 1 uM using PolyEY as substrate in presence of 33P-ATP by ProQinase assay relative to control
[19] = target: Calcium/calmodulin-dependent protein kinase type II subunit alpha (Homo sapiens) (UniProt Q9UQM7); assay: Inhibition of human CAMK2A assessed as residual activity at 1 uM using RBER-CHKtide as substrate in presence of 33P-ATP by ProQinase assay relative to control
[20] = target: Mitogen-activated protein kinase 13 (Homo sapiens) (UniProt O15264); assay: Inhibition of P38delta (unknown origin) assessed as remaining activity at 1 uM by Kinome scan method relative to control
[21] = target: Tyrosine-protein kinase BTK (Homo sapiens) (UniProt Q06187); assay: Inhibition of BTK (unknown origin) assessed as remaining activity at 1 uM by Kinome scan method relative to control
[22] = target: MAP kinase p38 (Homo sapiens) (UniProt O15264+Q15759+Q16539+P53778); assay: Inhibition of p38-MAPK in human HeLa cells assessed as reduction in HSP27 phosphorylation at Ser82 level at 50 nM incubated for 2 hrs in the presence of anisomycin stimulation for 40 mins by western blot analysis; type: cell-based
[23] = target: Mast/stem cell growth factor receptor Kit (Homo sapiens) (UniProt P10721); assay: Inhibition of KIT (unknown origin) assessed as remaining activity at 1 uM by Kinome scan method relative to control
[24] = target: T1, Serine/threonine-protein kinase Nek2 (Homo sapiens) (UniProt P51955); assay: Inhibition of human NEK2 assessed as residual activity at 1 uM using RB-CTF as substrate in presence of 33P-ATP by ProQinase assay relative to control
T1 sequence (whole entry): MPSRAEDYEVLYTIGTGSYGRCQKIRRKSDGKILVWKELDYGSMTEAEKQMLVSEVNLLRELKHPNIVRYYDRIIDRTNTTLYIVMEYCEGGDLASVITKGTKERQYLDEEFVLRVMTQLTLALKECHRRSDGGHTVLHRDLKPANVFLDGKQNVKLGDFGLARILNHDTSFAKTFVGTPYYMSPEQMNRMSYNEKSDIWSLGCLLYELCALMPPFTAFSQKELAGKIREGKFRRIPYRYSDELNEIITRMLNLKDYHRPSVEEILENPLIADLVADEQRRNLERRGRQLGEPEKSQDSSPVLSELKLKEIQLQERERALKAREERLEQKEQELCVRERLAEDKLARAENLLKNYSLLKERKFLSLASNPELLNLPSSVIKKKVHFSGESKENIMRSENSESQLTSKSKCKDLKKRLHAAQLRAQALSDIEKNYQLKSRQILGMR

[25] = target: Calcium/calmodulin-dependent protein kinase type II subunit alpha (Homo sapiens) (UniProt Q9UQM7); assay: Inhibition of CAMK2A (unknown origin) assessed as remaining activity at 1 uM by Kinome scan method relative to control

Chain of Calcium/calmodulin-dependent protein kinase type II subunit alpha (Homo sapiens) (Q9UQM7 whole entry): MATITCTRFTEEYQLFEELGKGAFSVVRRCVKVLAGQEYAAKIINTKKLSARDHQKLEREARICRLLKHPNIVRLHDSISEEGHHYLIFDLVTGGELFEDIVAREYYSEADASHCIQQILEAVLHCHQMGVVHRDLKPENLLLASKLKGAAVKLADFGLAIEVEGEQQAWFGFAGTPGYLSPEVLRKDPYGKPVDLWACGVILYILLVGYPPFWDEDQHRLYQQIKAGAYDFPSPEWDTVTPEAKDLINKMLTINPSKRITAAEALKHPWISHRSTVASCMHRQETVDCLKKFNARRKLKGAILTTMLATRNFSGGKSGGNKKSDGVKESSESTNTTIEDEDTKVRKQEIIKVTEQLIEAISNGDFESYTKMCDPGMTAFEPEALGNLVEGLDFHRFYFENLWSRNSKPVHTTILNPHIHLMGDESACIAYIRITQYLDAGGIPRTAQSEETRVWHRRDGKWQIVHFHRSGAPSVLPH
Chain of LIM domain kinase 2 (Homo sapiens) (P53671 whole entry, looked up, the tested form may be a part): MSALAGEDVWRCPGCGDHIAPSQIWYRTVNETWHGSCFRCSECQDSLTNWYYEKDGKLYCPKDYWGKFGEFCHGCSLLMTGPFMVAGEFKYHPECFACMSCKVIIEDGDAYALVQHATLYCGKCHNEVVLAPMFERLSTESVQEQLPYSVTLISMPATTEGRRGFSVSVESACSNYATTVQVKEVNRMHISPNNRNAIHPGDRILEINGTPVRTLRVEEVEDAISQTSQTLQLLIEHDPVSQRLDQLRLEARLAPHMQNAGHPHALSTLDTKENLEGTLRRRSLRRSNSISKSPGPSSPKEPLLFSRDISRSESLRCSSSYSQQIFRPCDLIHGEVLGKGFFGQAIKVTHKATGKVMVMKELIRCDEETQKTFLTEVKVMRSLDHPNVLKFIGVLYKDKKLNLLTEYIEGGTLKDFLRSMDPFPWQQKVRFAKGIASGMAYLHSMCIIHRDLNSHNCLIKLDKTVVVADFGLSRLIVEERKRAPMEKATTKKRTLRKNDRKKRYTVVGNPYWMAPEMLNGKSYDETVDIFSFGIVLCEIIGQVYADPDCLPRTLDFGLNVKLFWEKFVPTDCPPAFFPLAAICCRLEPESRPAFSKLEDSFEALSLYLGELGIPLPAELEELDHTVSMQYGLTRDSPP
Chain of Epidermal growth factor receptor (Homo sapiens), P00533 [UNDEFINED MUTATION] (P00533 whole entry, looked up, change not shown): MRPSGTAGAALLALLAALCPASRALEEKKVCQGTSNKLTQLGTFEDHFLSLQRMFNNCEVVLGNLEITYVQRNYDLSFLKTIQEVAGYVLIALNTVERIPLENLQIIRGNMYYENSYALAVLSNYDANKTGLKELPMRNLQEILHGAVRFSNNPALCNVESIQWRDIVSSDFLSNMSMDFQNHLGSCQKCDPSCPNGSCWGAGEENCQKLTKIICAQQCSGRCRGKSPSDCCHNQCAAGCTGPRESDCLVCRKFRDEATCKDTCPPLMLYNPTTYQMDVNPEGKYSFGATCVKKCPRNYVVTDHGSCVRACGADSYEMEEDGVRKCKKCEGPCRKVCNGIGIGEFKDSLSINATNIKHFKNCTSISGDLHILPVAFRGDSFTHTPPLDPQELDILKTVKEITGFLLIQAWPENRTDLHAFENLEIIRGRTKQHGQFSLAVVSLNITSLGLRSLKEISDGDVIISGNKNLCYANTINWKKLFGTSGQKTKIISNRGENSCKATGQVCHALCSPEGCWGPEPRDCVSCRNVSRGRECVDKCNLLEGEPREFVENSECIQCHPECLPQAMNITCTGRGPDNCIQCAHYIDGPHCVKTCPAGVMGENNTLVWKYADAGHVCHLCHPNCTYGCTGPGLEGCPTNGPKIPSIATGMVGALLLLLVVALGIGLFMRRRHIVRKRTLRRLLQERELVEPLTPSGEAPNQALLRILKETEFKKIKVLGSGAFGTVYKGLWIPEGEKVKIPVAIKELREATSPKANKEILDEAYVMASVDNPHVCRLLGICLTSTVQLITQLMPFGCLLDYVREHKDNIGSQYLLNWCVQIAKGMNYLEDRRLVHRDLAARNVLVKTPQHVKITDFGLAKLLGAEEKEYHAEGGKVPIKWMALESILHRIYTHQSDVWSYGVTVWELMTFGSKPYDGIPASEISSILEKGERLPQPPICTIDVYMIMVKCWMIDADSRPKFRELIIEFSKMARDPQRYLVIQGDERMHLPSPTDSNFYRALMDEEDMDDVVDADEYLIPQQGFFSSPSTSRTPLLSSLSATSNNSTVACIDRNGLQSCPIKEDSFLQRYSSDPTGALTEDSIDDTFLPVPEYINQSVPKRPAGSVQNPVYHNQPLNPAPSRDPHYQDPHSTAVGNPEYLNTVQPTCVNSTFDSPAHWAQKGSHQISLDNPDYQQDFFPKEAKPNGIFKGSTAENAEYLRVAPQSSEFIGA
Chain of Mitogen-activated protein kinase kinase kinase 13 (Homo sapiens) (O43283 whole entry): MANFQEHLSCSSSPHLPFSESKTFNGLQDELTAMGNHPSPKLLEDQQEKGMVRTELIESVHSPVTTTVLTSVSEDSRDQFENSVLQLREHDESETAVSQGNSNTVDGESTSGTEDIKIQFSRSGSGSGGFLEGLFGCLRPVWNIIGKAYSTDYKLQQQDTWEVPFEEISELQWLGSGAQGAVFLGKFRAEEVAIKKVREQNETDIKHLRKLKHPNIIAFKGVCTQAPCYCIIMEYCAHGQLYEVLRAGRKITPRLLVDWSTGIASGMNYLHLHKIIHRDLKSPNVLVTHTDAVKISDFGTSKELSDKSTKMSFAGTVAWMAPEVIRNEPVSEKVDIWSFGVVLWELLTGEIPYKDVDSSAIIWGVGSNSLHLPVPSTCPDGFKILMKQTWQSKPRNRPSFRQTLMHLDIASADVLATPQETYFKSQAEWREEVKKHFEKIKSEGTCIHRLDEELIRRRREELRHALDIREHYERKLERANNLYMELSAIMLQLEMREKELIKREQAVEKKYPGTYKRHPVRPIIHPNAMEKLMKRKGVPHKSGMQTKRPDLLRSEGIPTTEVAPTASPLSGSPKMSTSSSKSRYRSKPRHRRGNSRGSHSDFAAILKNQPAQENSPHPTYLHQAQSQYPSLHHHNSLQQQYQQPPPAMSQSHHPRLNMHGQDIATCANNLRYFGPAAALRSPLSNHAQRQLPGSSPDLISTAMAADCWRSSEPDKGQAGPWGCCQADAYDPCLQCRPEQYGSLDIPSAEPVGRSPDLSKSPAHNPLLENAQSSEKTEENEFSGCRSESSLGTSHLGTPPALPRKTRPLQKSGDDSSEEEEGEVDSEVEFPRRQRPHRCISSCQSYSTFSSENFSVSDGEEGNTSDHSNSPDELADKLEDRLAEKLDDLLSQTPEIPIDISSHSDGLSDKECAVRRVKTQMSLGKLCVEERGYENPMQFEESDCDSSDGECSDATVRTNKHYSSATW
Chain of Serine/threonine-protein kinase 33 (Homo sapiens) (Q9BYT3 whole entry, looked up): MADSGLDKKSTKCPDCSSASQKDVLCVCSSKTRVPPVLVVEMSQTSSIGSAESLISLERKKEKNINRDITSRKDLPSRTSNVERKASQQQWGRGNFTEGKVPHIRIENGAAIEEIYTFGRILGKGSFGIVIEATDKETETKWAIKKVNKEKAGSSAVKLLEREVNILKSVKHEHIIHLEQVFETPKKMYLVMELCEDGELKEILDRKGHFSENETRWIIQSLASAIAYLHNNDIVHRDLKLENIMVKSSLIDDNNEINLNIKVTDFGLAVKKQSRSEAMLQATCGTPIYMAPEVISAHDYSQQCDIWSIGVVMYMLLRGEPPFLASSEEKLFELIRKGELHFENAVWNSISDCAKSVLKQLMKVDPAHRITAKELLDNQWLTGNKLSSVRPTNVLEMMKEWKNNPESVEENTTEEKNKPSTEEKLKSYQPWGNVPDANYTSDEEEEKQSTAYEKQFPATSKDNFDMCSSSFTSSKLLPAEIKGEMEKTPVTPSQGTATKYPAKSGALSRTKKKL
Chain of Activin receptor type-2B (Homo sapiens) (Q13705 whole entry): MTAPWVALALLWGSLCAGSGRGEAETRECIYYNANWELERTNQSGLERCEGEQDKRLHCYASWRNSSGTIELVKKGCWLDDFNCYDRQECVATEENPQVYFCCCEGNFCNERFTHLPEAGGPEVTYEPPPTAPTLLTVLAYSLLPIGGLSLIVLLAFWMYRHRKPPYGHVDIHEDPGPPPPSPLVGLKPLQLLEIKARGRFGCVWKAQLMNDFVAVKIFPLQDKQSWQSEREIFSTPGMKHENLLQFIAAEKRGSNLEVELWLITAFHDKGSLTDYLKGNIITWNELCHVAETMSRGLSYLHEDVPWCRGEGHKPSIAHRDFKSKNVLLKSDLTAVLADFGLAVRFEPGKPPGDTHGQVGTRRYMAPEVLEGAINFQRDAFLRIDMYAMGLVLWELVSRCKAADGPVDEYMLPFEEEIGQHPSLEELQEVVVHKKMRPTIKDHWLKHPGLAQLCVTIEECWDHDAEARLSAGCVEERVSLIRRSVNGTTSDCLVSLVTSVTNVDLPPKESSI
Chain of Mitogen-activated protein kinase 8 (Homo sapiens) (P45983 whole entry): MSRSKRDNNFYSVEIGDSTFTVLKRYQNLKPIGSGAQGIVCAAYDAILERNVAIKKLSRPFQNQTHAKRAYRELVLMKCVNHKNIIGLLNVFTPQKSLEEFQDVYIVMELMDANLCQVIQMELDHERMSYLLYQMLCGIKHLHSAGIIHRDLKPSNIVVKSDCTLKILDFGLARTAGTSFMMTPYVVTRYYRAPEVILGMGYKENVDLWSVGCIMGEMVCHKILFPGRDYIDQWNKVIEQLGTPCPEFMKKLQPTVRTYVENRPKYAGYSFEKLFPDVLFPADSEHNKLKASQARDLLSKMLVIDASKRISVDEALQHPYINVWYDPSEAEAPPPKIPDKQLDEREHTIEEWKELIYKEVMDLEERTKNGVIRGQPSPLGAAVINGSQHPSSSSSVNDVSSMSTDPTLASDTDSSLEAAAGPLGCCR

`O=C1c2ccc(Nc3ccc(F)cc3F)cc2CCc2ccc(OC[C@H](O)CO)cc21` [Skepinone-L] showed an Activity [1] of 100%, an Activity [2] of 101% and an Activity [3] of 98%. It also gave an Activity [4] of 97%, an Activity [5] of 83% and an Activity [6] of 79%. The Activity [7] was 94%, the Activity [8] was 94% and the Activity [9] was 98%. For the same compound, the Activity [10] was 100%, the Activity [11] was 81% and the Activity [12] was 100%. For the same compound, the Activity [13] was 100%, the Activity [14] was 100% and the Activity [15] was 96%. It also gave an Activity [16] of 100%, an Activity [17] of 98% and an Activity [18] of 83%. For the same compound, the Activity [19] was 83%, the Activity [20] was 85% and the Activity [21] was 100%. The inhibition [22] was “Active”, the Activity [23] was 93% and the Activity [24] was 85%. For the same compound, the Activity [25] was 100%.
